Assay results: ChEMBL document CHEMBL4330131, “The identification of novel small-molecule inhibitors targeting WDR5-MLL1 interaction through fluorescence polarization based high-throughput screening” (Bioorg Med Chem Lett, 2019)
pIC50, pKd, pKi: −log10 of the molar value. Blank lines part the entries; values can stand above or below the compound they belong to.

How the values were obtained:
[1] = target: T1, WD repeat-containing protein 5 (Homo sapiens, UniProt P61964); test: Displacement of fluorescence-labelled Ac-ARA peptide from WDR5 (unknown origin) by fluorescence polarization assay
[2] = target: T1, WD repeat-containing protein 5; test: Displacement of 5-FAM labelled tracer from WDR5 (unknown origin) by fluorescence polarization assay
[3] = target: T1, WD repeat-containing protein 5; test: Displacement of Ac-ARTEVHLRKS-(Ahx)-(Ahx)-K(5-FAM)-NH2 from recombinant full-length human N-terminal His6-tagged WDR5 (1 to 334 residues) expressed in Escherichia coli BL21 (DE3) after 2 hrs by fluorescence polarization assay
[4] = target: Histone-lysine N-methyltransferase 2D (Homo sapiens, UniProt O14686); test: Inhibition of MLL2 (unknown origin) using SAM as substrate preincubated for 15 mins followed by substrate addition and measured after 1 hr by Alphalisa assay
[5] = target: Protein arginine N-methyltransferase 1 (Homo sapiens, UniProt Q99873); test: Inhibition of PRMT1 (unknown origin) using SAM as substrate preincubated for 15 mins followed by substrate addition and measured after 1 hr by Alphalisa assay
[6] = target: Histone-lysine N-methyltransferase SETD1B (Homo sapiens, UniProt Q9UPS6); test: Inhibition of SETD1B (unknown origin) using SAM as substrate preincubated for 15 mins followed by substrate addition and measured after 1 hr by Alphalisa assay
[7] = target: T2, Histone-lysine N-methyltransferase EHMT2 (Homo sapiens, UniProt Q96KQ7); test: Inhibition of G9a (unknown origin) using SAM as substrate preincubated for 15 mins followed by substrate addition and measured after 1 hr by Alphalisa assay
T2 sequence (Q96KQ7 whole entry): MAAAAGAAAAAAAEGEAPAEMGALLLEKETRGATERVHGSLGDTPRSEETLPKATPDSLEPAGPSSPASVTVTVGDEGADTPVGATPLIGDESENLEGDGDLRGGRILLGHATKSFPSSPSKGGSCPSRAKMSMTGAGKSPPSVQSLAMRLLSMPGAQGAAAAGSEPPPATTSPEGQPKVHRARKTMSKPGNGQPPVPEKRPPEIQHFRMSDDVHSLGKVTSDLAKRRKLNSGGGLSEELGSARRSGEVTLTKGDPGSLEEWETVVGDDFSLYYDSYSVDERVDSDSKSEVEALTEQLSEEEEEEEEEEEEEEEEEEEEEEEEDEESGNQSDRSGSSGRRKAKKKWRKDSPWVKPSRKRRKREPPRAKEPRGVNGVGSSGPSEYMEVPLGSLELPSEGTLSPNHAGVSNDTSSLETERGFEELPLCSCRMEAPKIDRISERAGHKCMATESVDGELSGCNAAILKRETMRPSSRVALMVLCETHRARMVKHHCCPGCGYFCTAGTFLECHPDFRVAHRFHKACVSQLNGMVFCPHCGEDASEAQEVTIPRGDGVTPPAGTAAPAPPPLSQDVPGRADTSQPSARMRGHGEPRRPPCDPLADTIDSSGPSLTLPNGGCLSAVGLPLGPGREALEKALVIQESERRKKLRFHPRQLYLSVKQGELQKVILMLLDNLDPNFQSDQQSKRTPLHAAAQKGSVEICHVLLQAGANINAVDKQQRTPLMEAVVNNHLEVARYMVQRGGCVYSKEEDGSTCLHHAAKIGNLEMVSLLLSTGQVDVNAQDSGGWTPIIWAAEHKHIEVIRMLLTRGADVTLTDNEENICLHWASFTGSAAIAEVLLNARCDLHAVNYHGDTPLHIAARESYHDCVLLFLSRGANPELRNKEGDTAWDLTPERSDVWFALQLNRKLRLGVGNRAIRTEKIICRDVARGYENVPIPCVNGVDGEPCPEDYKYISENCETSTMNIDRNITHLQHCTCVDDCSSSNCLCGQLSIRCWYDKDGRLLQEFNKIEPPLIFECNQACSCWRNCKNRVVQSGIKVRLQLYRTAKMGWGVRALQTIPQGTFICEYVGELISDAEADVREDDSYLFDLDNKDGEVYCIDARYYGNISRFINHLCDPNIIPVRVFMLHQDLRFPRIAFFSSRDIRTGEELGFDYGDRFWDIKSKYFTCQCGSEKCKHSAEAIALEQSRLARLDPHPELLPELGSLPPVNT

[8] = target: T1, WD repeat-containing protein 5; test: Binding affinity to recombinant full-length human N-terminal His6-tagged WDR5 (1 to 334 residues) expressed in Escherichia coli BL21 (DE3) by surface plasmon resonance analysis
[9] = system: MV4-11; test: Antiproliferative activity against human MV4-11 cells harboring MLL-AF4 fusion protein assessed as cell growth inhibition after 5 days by Celltiter-Glo luminescent assay; type: functional, cell-based; details: MV4-11, 120 h
[10] = system: K562; test: Antiproliferative activity against human K562 cells assessed as cell growth inhibition after 5 days by Celltiter-Glo luminescent assay; type: functional, cell-based; details: K562, 120 h

Histone-lysine N-methyltransferase SETD1B, sequence (Q9UPS6 whole entry): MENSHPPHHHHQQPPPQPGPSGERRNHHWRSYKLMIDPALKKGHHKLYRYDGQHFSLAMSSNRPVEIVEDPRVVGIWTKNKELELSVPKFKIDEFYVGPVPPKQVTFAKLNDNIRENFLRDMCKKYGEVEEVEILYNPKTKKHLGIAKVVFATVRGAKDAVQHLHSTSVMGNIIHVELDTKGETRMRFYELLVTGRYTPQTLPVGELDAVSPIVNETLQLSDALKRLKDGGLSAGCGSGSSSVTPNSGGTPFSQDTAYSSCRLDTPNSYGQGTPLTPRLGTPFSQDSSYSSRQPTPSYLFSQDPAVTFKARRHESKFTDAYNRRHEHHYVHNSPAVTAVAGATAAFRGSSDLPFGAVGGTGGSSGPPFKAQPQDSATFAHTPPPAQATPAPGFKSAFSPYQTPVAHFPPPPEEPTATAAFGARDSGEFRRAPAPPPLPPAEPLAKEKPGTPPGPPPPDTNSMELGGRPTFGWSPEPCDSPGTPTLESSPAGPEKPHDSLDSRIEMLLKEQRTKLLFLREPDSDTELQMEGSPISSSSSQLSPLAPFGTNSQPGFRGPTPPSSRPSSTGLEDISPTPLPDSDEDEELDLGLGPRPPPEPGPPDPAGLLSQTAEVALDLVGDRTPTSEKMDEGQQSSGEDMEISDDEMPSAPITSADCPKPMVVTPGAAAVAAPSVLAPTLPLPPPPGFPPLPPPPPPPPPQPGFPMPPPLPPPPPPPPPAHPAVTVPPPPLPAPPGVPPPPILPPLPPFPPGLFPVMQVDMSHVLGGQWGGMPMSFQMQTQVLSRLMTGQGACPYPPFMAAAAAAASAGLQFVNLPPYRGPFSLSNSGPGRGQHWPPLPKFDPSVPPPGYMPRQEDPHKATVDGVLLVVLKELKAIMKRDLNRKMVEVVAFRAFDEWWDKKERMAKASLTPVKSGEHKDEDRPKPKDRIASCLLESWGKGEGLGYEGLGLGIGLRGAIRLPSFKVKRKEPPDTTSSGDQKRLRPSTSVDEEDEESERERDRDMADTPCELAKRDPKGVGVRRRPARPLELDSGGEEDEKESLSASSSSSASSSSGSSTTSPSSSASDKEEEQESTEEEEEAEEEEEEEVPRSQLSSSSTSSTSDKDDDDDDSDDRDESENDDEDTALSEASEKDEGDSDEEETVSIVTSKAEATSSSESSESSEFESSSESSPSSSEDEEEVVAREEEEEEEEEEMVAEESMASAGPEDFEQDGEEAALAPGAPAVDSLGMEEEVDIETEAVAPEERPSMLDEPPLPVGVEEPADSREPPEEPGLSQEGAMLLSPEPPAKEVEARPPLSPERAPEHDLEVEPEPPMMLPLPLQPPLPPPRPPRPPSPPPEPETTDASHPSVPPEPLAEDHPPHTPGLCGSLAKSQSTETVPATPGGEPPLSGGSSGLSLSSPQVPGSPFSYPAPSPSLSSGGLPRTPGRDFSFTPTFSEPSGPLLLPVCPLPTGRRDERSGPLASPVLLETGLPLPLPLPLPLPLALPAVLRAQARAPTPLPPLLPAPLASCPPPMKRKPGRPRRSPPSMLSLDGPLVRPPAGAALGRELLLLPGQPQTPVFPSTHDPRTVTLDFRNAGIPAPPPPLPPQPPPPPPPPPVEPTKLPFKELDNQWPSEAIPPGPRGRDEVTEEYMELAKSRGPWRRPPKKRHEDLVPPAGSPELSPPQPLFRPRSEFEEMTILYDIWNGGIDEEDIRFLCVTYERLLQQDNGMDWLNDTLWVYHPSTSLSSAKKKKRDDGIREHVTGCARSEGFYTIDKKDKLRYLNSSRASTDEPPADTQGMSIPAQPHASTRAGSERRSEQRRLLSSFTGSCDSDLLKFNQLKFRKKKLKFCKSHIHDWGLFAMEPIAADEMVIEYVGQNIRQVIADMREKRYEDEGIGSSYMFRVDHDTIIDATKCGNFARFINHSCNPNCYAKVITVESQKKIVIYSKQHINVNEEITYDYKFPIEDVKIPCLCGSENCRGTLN
Protein arginine N-methyltransferase 1, sequence (Q99873 whole entry): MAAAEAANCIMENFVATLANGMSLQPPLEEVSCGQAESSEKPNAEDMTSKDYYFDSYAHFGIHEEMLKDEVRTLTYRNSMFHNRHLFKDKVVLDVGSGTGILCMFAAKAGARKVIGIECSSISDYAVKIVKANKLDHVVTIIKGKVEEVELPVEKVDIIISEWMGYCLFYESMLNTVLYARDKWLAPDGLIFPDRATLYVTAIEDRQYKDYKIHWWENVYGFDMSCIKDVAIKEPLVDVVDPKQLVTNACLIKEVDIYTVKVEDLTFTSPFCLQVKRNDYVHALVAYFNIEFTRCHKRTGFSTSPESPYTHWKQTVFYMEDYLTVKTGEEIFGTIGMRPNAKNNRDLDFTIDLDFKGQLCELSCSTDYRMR

SMILES: COc1ccc(S(=O)(=O)Nc2ccc(C(=O)O)cc2)cc1C(C)(C)C
- pIC50 [3]: 4.32

SMILES: CCCCOc1ccc(S(=O)(=O)Nc2cccc(C(=O)O)c2)cc1C
- pIC50 [3]: 4.52

SMILES: O=C(O)c1cc(NS(=O)(=O)c2ccc(Cl)cc2)cc(C(=O)O)c1
- pIC50 [3]: 4.66

Second part, the compound after the results:

- pIC50 [1]: 8.35
- pKi [2]: > 9.00
SMILES: CCC(CC)(NC(=O)C(C)C)C(=O)N[C@@H](CCCNC(=N)N)C(=O)NC1(C(=O)NC(c2ccc(Cl)cc2)c2ccc(Cl)cc2)CCCC1

- pIC50 [3]: 4.88 to 4.89
SMILES: Cc1c(Cl)ccc(S(=O)(=O)Nc2cccc(C(=O)O)c2)c1Cl

- pIC50 [3]: 4.89
- pIC50 [4]: < 4.00
- pIC50 [5]: < 4.00
- pIC50 [6]: < 4.00
- pIC50 [7]: < 4.00
- pKd [8]: 4.80
- pIC50 [9]: 4.51
- pIC50 [10]: 4.14
SMILES: CCCCOc1ccc(S(=O)(=O)Nc2ccc(C(=O)O)cc2)cc1C

- pIC50 [3]: 4.66
SMILES: CCCCOc1ccc(S(=O)(=O)Nc2ccccc2C(=O)O)cc1C
